Experimental findings from ChEMBL document CHEMBL1146698, “Phe*-Ala-based pentapeptide mimetics are BACE inhibitors: P2 and P3 SAR” (Bioorg Med Chem Lett, 2004) are described below.

One may read the IC50 as the concentration that inhibits the measured activity by half.

One assay concerns HEK293. The assay can be described thus: In vitro inhibitory activity against beta-amyloid peptide (Abeta) in HEK293/APP751swe cells. Type of assay: functional, cell-based. To be noted: Homo sapiens.
For a further assay, the target named is Beta-secretase 1 (Homo sapiens, UniProt P56817). In words: In vitro inhibition of Beta-secretase-1 in HEK293 (Human Embryonic Kidney) cell line. The assay is classed as cell-based.
Chain of Beta-secretase 1 (P56817 whole entry): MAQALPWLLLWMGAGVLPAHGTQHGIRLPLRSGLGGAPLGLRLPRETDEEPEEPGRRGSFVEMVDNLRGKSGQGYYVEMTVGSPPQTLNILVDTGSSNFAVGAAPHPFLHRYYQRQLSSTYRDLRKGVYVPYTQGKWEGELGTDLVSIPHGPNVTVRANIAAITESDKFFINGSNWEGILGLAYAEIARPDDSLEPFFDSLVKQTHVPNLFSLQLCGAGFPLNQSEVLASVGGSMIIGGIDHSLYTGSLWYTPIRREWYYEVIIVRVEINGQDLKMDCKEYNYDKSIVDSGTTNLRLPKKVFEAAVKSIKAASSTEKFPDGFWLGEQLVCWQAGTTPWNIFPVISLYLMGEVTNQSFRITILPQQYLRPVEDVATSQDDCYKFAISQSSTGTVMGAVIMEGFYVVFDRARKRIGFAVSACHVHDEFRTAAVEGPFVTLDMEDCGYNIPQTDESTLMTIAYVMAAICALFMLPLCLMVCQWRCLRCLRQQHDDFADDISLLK
Another assay concerns the target T1, Beta-secretase 2 (Homo sapiens, UniProt Q9Y5Z0).
T1 sequence (Q9Y5Z0 whole entry): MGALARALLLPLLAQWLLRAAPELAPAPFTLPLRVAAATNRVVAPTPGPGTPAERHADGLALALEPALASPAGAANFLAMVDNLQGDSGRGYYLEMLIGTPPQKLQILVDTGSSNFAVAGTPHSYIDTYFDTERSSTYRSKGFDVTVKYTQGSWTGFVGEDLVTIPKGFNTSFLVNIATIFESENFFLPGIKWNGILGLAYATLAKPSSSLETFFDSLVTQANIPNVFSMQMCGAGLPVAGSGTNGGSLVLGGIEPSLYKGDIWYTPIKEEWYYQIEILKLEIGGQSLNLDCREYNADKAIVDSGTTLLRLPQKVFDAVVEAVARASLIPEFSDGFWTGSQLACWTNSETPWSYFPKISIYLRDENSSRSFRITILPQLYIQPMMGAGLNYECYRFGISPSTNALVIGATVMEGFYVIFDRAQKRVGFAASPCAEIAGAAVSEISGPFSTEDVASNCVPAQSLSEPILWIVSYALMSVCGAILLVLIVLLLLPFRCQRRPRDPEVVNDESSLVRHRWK
In words: Selectivity tested against Beta-secretase 2 (BACE) in human.

Consider `CC(C[C@H](O)[C@H](Cc1ccccc1)NC(=O)[C@H](C)NC(=O)[C@H](CC(F)F)NC(=O)OC(C)(C)C)C(=O)NC(C(=O)NCc1ccncc1)C(C)C` (single isomer, unassigned), for which the IC50 in the assay with HEK293 was 400 nM; against Beta-secretase 1, 45 nM. Taken in the same sequence, the figures for `CC(C[C@H](O)[C@H](Cc1ccccc1)NC(=O)[C@H](C)NC(=O)[C@@H](NC(=O)OC(C)(C)C)C(C)C)C(=O)NC(C(=O)NCc1ccncc1)C(C)C` (single isomer, unassigned) were 2100 nM and 82 nM. The matching figures for `CCC[C@H](NC(=O)OC(C)(C)C)C(=O)N[C@@H](C)C(=O)N[C@@H](Cc1ccccc1)[C@@H](O)CC(C)C(=O)NC(C(=O)NCc1ccncc1)C(C)C` (single isomer, unassigned): 1400 nM and 41 nM. As to `CSCC[C@H](NC(=O)[C@@H](NC(=O)OC(C)(C)C)C(C)C)C(=O)N[C@@H](CC(C)C)[C@@H](O)C[C@@H](C)C(=O)N[C@H](C(=O)NCc1ccccc1)C(C)C`, half-maximal inhibition at Beta-secretase 2 (IC50) required 500 nM. For the molecule `CC[C@H](NC(=O)OC(C)(C)C)C(=O)N[C@@H](C)C(=O)N[C@@H](Cc1ccccc1)[C@@H](O)CC(C)C(=O)NC(C(=O)NCc1ccncc1)C(C)C` (single isomer, unassigned), the IC50 in the assay with HEK293 came to 2800 nM; against Beta-secretase 1, 75 nM. Taken in the same sequence, the figures for `CC(C[C@H](O)[C@H](Cc1ccccc1)NC(=O)[C@H](C)NC(=O)[C@H](CC(F)(F)C(F)F)NC(=O)OC(C)(C)C)C(=O)NC(C(=O)NCc1ccncc1)C(C)C` (single isomer, unassigned) were 1620 nM and 281 nM.

In the case of `CCC[C@H](NC(=O)OC(C)(C)C)C(=O)N[C@@H](CCSC)C(=O)N[C@@H](Cc1ccccc1)[C@@H](O)CC(C)C(=O)NC(C(=O)NCc1ccncc1)C(C)C` (single isomer, unassigned), the IC50 in the assay with HEK293 stood at 990 nM; on Beta-secretase 1, 60 nM.

Consider `CC(C[C@H](O)[C@H](Cc1ccccc1)NC(=O)[C@H](C)NC(=O)[C@H](CCN(C)C)NC(=O)OC(C)(C)C)C(=O)NC(C(=O)NCc1ccncc1)C(C)C` (single isomer, unassigned), for which 89000 nM corresponded to half-maximal inhibition against Beta-secretase 1 (IC50). On the same count and under the same terms, the same measure for `CC(C[C@H](O)[C@H](Cc1ccccc1)NC(=O)[C@H](C)NC(=O)[C@H](CN(C)C)NC(=O)OC(C)(C)C)C(=O)NC(C(=O)NCc1ccncc1)C(C)C` (single isomer, unassigned): 2530 nM.

As to `COCC[C@H](NC(=O)[C@@H](NC(=O)OC(C)(C)C)C(C)C)C(=O)N[C@@H](Cc1ccccc1)[C@@H](O)CC(C)C(=O)NC(C(=O)NCc1ccncc1)C(C)C` (single isomer, unassigned), the IC50 is 2900 nM in the assay on HEK293 and 127 nM on Beta-secretase 1.

For `CC(C)C[C@H](NC(=O)OC(C)(C)C)C(=O)N[C@@H](C)C(=O)N[C@@H](Cc1ccccc1)[C@@H](O)CC(C)C(=O)NC(C(=O)NCc1ccncc1)C(C)C` (single isomer, unassigned), the IC50 in the assay with HEK293 amounted to 860 nM; against Beta-secretase 1, 63 nM. `CC(C[C@H](O)[C@H](Cc1ccccc1)NC(=O)C(C)NC(=O)[C@@H](NC(=O)OC(C)(C)C)C(C)C)C(=O)NC(C(=O)NCc1ccncc1)C(C)C` (single isomer, unassigned): the IC50 in the assay on HEK293 was determined as 48000 nM; against Beta-secretase 1, 1060 nM. As to `COCC[C@H](NC(=O)OC(C)(C)C)C(=O)N[C@@H](C)C(=O)N[C@@H](Cc1ccccc1)[C@@H](O)CC(C)C(=O)NC(C(=O)NCc1ccncc1)C(C)C` (single isomer, unassigned), half-maximal inhibition at Beta-secretase 1 (IC50) was put at 705 nM. As for `CC[C@@H](C)[C@H](NC(=O)OC(C)(C)C)C(=O)N[C@@H](C)C(=O)N[C@@H](Cc1ccccc1)[C@@H](O)CC(C)C(=O)NC(C(=O)NCc1ccncc1)C(C)C` (single isomer, unassigned), the IC50 in the assay with HEK293 was 410 nM; against Beta-secretase 1, 42 nM.

Consider `COC[C@H](NC(=O)OC(C)(C)C)C(=O)N[C@@H](C)C(=O)N[C@@H](Cc1ccccc1)[C@@H](O)CC(C)C(=O)NC(C(=O)NCc1ccncc1)C(C)C` (single isomer, unassigned), for which the results for the IC50 in the assay on HEK293 and against Beta-secretase 1 were 4990 nM and 118 nM, respectively.

As to `CSCC[C@H](NC(=O)[C@@H](NC(=O)OC(C)(C)C)C(C)C)C(=O)N[C@@H](Cc1ccccc1)[C@@H](O)C[C@@H](C)C(=O)N[C@H](C(=O)NCc1ccccc1)C(C)C`, the 50% inhibitory concentration (IC50) was found to be 22000 nM with HEK293 and 28 nM against Beta-secretase 1. The matching figures for `CSCC[C@H](NC(=O)[C@@H](NC(=O)OC(C)(C)C)C(C)C)C(=O)N[C@@H](Cc1ccccc1)[C@@H](O)CC(C)C(=O)NC(C(=O)NCc1ccncc1)C(C)C` (single isomer, unassigned): 1700 nM and 70 nM.

Turning to `CC(C[C@H](O)[C@H](Cc1ccccc1)NC(=O)[C@H](C)NC(=O)[C@H](CCCC(F)(F)F)NC(=O)OC(C)(C)C)C(=O)NC(C(=O)NCc1ccncc1)C(C)C` (single isomer, unassigned), the IC50 in the assay on HEK293 turned out to be 13400 nM; at Beta-secretase 1, 419 nM.
